This data set relates to CCRIS mutagenicity, Ames/micronucleus/aberration tests. Put plainly: CCRIS mutagenicity studies. From the text: The CCRIS database contains chemical records with carcinogenicity, mutagenicity, tumor promotion, and tumor inhibition test results. It was developed by the National Cancer Institute (NCI). Data are derived from studies cited in primary journals, current awareness tools, NCI reports, and other sources. Test results have been reviewed by experts in carcinogenesis and mutagenesis.
CCRIS provides historical information from the years 1985 - 2011. It is no longer updated.
This is an archive assay for CCRIS mutagenicity studies.

Where [1] appears, read: Test System: AMES SALMONELLA TYPHIMURIUM, Strain/Indicator: TA98, Metabolic Activation: NONE, Method: PREINCUBATION
Setting [2] is: Test System: AMES SALMONELLA TYPHIMURIUM, Strain/Indicator: TA100, Metabolic Activation: NONE, Method: PREINCUBATION

Calls of active or inactive are those of the source. How the calls were made is not given here.

Turning to `O=[N+]([O-])c1ccc2c(c1)Oc1cc([N+](=O)[O-])ccc1O2`, the mutagenic call was “active; positive” (Test System: AMES SALMONELLA TYPHIMURIUM, Strain/Indicator: TA98(1,8-DNP6), Metabolic Activation: NONE, Method: PREINCUBATION); “active; positive” (Test System: AMES SALMONELLA TYPHIMURIUM, Strain/Indicator: TA98(1,8-DNP6), Metabolic Activation: NONE, Method: SUSPENSION); “active; positive” (Test System: AMES SALMONELLA TYPHIMURIUM, Strain/Indicator: TA98(1,8-DNP6), Metabolic Activation: RAT, LIVER, S-9, PCB (5%), Method: PREINCUBATION); “inactive; negative” (Test System: AMES SALMONELLA TYPHIMURIUM, Strain/Indicator: TA98(NR), Metabolic Activation: NONE, Method: PREINCUBATION); “inactive; negative” (Test System: AMES SALMONELLA TYPHIMURIUM, Strain/Indicator: TA98(NR), Metabolic Activation: NONE, Method: SUSPENSION); “active; positive” (Test System: AMES SALMONELLA TYPHIMURIUM, Strain/Indicator: TA98(NR), Metabolic Activation: RAT, LIVER, S-9 (15%), Method: PREINCUBATION). In addition, the mutagenic call runs as follows: (Test System: AMES SALMONELLA TYPHIMURIUM, Strain/Indicator: TA98(NR), Metabolic Activation: RAT, LIVER, S-9, 3-METHYLCHOLANTHRENE (15%), Method: PREINCUBATION) “active; positive”; (Test System: AMES SALMONELLA TYPHIMURIUM, Strain/Indicator: TA98(NR), Metabolic Activation: RAT, LIVER, S-9, BETA-NAPHTHOFLAVONE (15%), Method: PREINCUBATION) “active; positive”; (Test System: AMES SALMONELLA TYPHIMURIUM, Strain/Indicator: TA98(NR), Metabolic Activation: RAT, LIVER, S-9, PCB (5 OR 15%), Method: PREINCUBATION) “active; positive”; (Test System: AMES SALMONELLA TYPHIMURIUM, Strain/Indicator: TA98(NR), Metabolic Activation: RAT, LIVER, S-9, PHENOBARBITAL (15%), Method: PREINCUBATION) “active; positive”; under setting [1], “active; positive”; (Test System: AMES SALMONELLA TYPHIMURIUM, Strain/Indicator: TA98, Metabolic Activation: NONE, Method: SUSPENSION) “active; positive”. The mutagenic call was “active; positive” (Test System: AMES SALMONELLA TYPHIMURIUM, Strain/Indicator: TA98, Metabolic Activation: RAT, LIVER, S-9, PCB (5%), Method: PREINCUBATION); “active; positive” (Test System: AMES SALMONELLA TYPHIMURIUM, Strain/Indicator: TA98, Metabolic Activation: RAT, LIVER, S-9, PCB, Method: SUSPENSION); “inactive; negative” under setting [2]; “inactive; negative” (Test System: AMES SALMONELLA TYPHIMURIUM, Strain/Indicator: TA100, Metabolic Activation: NONE, Method: SUSPENSION); “inactive; negative” (Test System: AMES SALMONELLA TYPHIMURIUM, Strain/Indicator: TA100, Metabolic Activation: RAT, LIVER, S-9, PCB (5%), Method: PREINCUBATION); “active; positive” (Test System: AMES SALMONELLA TYPHIMURIUM, Strain/Indicator: TA100, Metabolic Activation: RAT, LIVER, S-9, PCB, Method: SUSPENSION).

As to `Cc1nc2c(cc(C)c3ccc4ccc(O)cc4c32)[nH]1`, for the setting “Test System: AMES SALMONELLA TYPHIMURIUM, Strain/Indicator: TA98, Metabolic Activation: RAT, LIVER, S-9, AROCLOR, Method: STANDARD PLATE”, the mutagenic call was “active; positive”.

In the case of `c1cncc(C2=NCCC2)c1`, for the setting “End Point: Lymphocytes, Strain/Indicator: Human (male and female) (HPRT)/6-Thioguanine, Metabolic Activation: None”, the mutagenic call was “active; positive (p=0.038)”.

Take `CC(O)CN(CCN(CC(C)O)CC(C)O)CC(C)O` (configuration not stated): the mutagenic call (Test System: AMES SALMONELLA TYPHIMURIUM, Strain/Indicator: TA97, Metabolic Activation: NONE, Method: STANDARD PLATE) is “inactive; negative”; the mutagenic call (Test System: AMES SALMONELLA TYPHIMURIUM, Strain/Indicator: TA97, Metabolic Activation: S-9, Method: STANDARD PLATE) is “inactive; negative”; the mutagenic call (Test System: AMES SALMONELLA TYPHIMURIUM, Strain/Indicator: TA98, Metabolic Activation: NONE, Method: STANDARD PLATE) was “inactive; negative”; the mutagenic call (Test System: AMES SALMONELLA TYPHIMURIUM, Strain/Indicator: TA98, Metabolic Activation: S-9, Method: STANDARD PLATE) is “inactive; negative”; the mutagenic call (Test System: AMES SALMONELLA TYPHIMURIUM, Strain/Indicator: TA100, Metabolic Activation: NONE, Method: STANDARD PLATE) was “inactive; negative”; the mutagenic call (Test System: AMES SALMONELLA TYPHIMURIUM, Strain/Indicator: TA100, Metabolic Activation: S-9, Method: STANDARD PLATE) is “inactive; negative”. Further, the mutagenic call is, setting by setting: (Test System: AMES SALMONELLA TYPHIMURIUM, Strain/Indicator: TA102, Metabolic Activation: NONE, Method: STANDARD PLATE) “inactive; negative”; (Test System: AMES SALMONELLA TYPHIMURIUM, Strain/Indicator: TA102, Metabolic Activation: S-9, Method: STANDARD PLATE) “inactive; negative”; (Test System: E.COLI, Strain/Indicator: WP2 (PKM101), Metabolic Activation: NONE, Method: STANDARD PLATE) “inactive; negative”; (Test System: E.COLI, Strain/Indicator: WP2 (PKM101), Metabolic Activation: S-9, Method: STANDARD PLATE) “inactive; negative”.

With `Clc1ccc(C(Cl)(Cl)Cl)c(Cl)c1`, the mutagenic call is, setting by setting: (Test System: AMES SALMONELLA TYPHIMURIUM, Strain/Indicator: TA98, Metabolic Activation: HAMSTER, LIVER, S-9, AROCLOR 1254 (30%), Method: PREINCUBATION) “active; positive”; under setting [1], “inactive; negative”; (Test System: AMES SALMONELLA TYPHIMURIUM, Strain/Indicator: TA98, Metabolic Activation: RAT, LIVER, S-9, AROCLOR 1254 (30%), Method: PREINCUBATION) “active; positive”; (Test System: AMES SALMONELLA TYPHIMURIUM, Strain/Indicator: TA100, Metabolic Activation: HAMSTER, LIVER, S-9, AROCLOR 1254 (30%), Method: PREINCUBATION) “active; positive”; under setting [2], “inactive; negative”; (Test System: AMES SALMONELLA TYPHIMURIUM, Strain/Indicator: TA100, Metabolic Activation: RAT, LIVER, S-9, AROCLOR 1254 (30%), Method: PREINCUBATION) “active; positive”.

Regarding `O=C[C@H](NC(=O)N(CCCl)N=O)[C@@H](O)[C@H](O)[C@H](O)CO`, under “Test System: CHINESE HAMSTER V-79, Strain/Indicator: V-79/6-THIOGUANINE, Metabolic Activation: NONE, Method: STANDARD PLATE”, the mutagenic call is “active; positive”.

Regarding `NNc1ccn([C@@H]2O[C@H](CO)[C@@H](O)[C@H]2O)c(=O)n1`, the mutagenic call (Test System: CHINESE HAMSTER V-79, Strain/Indicator: V-79/6-THIOGUANINE, Metabolic Activation: NONE, Method: REPLATING) was “active; positive”.

As to `CCc1c(O)c(O)c2c(c1O)C(=O)C(O)=C(O)C2=O`, the mutagenic call (Test System: AMES SALMONELLA TYPHIMURIUM, Strain/Indicator: TA98, Metabolic Activation: MICROSOMAL FRACTION, FULLY ACTIVATED, AND RAT LIVER S-9, Method: STANDARD PLATE) was “active; positive”; the mutagenic call (Test System: AMES SALMONELLA TYPHIMURIUM, Strain/Indicator: TA98, Metabolic Activation: MICROSOMAL FRACTION, NON-FULLY ACTIVATED, Method: STANDARD PLATE) is “active; positive”; the mutagenic call (Test System: AMES SALMONELLA TYPHIMURIUM, Strain/Indicator: TA100, Metabolic Activation: MICROSOMAL FRACTION, FULLY ACTIVATED, AND RAT LIVER S-9, Method: STANDARD PLATE) was “active; positive”; the mutagenic call (Test System: AMES SALMONELLA TYPHIMURIUM, Strain/Indicator: TA100, Metabolic Activation: MICROSOMAL FRACTION, NON-FULLY ACTIVATED, Method: STANDARD PLATE) was “active; positive”; the mutagenic call (Test System: AMES SALMONELLA TYPHIMURIUM, Strain/Indicator: TA1537, Metabolic Activation: MICROSOMAL FRACTION, FULLY ACTIVATED, AND RAT LIVER S-9, Method: STANDARD PLATE) was “active; positive”; the mutagenic call (Test System: AMES SALMONELLA TYPHIMURIUM, Strain/Indicator: TA1537, Metabolic Activation: MICROSOMAL FRACTION, NON-FULLY ACTIVATED, Method: STANDARD PLATE) is “inactive; negative”.

With `CCc1c2ccccc2cc2c3c(ccc12)[C@H](O)[C@@H](O)[C@H]1O[C@@H]31`, the mutagenic call is, setting by setting: under setting [1], “active; positive”; under setting [2], “active; positive”; (Test System: CHINESE HAMSTER V-79, Strain/Indicator: V-79/6-THIOGUANINE, Metabolic Activation: NONE) “active; positive”.

For the origin of these results see PubChem BioAssay AID1259407 (Chemical Carcinogenesis Research Information System (CCRIS), 2018).
